Read-outs that look alike come from different tables or passages of the source.
Key:
Type in all cases: biochemical
hCA I = biological target: T1, hCA I (Homo sapiens, UniProt P00915); assay: stopped-flow CO2 hydrase assay, hCA I
T1 construct: made in house

hCA VA = biological target: T2, hCA VA (Homo sapiens, UniProt P35218); assay: stopped-flow CO2 hydrase assay, hCA VA
T2 construct: made in house

hCA II = biological target: T3, hCA II (Homo sapiens, UniProt P00918); assay: stopped-flow CO2 hydrase assay, hCA II
T3 construct: made in house

hCA VII = biological target: T4, hCA VII (Homo sapiens, UniProt P43166); assay: stopped-flow CO2 hydrase assay, hCA VII
T4 construct: made in house

hCA XII = biological target: T5, hCA XII (Homo sapiens, UniProt O43570); assay: stopped-flow CO2 hydrase assay, hCA XII; details: for Selectivity Index hCA II/hCA XII: ratio of Ki values
T5 construct: made in house

hCA IX = biological target: T6, hCA IX (Homo sapiens, UniProt Q16790); assay: stopped-flow CO2 hydrase assay, hCA IX; details: for Selectivity Index hCA II/hCA IX: ratio of Ki values; for Ki: recombinant enzyme, errors ± 5–10%, 3 assays
T6 construct: made in house

hCA IV = biological target: T7, hCA IV (Homo sapiens, UniProt P22748); assay: stopped-flow CO2 hydrase assay, hCA IV
T7 construct: made in house

[1] = recombinant enzyme, errors ± 5–10%, 3 assays, read-out: Ki hCA I
[2] = recombinant enzyme, errors ± 5–10%, 3 assays, read-out: Ki hCA VA
[3] = recombinant enzyme, errors ± 5–10%, 3 assays, read-out: Ki hCA II
[4] = recombinant enzyme, errors ± 5–10%, 3 assays, read-out: Ki hCA VII
[5] = recombinant enzyme, errors ± 5–10%, 3 assays, read-out: Ki hCA XII
[6] = recombinant enzyme, errors ± 5–10%, 3 assays, read-out: Ki hCA IV

T4 sequence (P43166 whole entry): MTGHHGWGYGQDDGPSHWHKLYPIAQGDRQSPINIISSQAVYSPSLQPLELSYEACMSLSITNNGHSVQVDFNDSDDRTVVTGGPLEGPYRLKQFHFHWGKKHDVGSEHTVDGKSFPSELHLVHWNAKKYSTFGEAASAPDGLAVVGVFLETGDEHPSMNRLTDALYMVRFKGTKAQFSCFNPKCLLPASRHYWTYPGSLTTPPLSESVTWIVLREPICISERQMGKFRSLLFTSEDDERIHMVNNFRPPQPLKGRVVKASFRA
T7 sequence (P22748 19-312): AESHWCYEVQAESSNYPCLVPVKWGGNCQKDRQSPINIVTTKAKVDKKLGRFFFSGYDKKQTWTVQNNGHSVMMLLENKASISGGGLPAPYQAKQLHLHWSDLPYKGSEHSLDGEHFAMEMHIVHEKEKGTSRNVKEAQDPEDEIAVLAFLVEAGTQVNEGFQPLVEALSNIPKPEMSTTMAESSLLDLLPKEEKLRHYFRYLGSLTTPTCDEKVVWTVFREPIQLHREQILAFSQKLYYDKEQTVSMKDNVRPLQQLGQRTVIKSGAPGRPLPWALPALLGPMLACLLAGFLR
T1 sequence (P00915 whole entry): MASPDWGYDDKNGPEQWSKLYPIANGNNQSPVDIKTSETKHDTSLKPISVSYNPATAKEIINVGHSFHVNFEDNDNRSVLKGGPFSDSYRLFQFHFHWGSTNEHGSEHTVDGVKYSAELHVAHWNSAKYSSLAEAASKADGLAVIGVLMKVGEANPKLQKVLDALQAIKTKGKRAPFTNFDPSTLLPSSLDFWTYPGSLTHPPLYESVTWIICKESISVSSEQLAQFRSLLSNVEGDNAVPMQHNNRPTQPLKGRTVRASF
T2 sequence (P35218 39-305): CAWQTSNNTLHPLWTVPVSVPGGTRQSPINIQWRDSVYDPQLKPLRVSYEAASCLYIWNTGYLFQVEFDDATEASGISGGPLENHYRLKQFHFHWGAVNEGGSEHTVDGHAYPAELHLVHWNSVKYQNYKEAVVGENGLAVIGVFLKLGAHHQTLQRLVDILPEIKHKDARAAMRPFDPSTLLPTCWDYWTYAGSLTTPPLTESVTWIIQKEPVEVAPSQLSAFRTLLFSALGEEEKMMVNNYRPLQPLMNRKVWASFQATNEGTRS
T5 sequence (O43570 25-354): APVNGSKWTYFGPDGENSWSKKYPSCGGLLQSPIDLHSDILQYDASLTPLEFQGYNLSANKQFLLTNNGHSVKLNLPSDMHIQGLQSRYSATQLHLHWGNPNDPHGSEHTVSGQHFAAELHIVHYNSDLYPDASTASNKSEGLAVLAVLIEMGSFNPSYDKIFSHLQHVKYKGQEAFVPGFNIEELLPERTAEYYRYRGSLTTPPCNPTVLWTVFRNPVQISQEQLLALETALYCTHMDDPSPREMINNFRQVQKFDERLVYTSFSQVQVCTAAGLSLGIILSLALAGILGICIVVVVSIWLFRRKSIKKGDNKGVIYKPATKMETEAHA

Which results are given for `O=C(O)c1ccc(Sc2nnc(-c3cccc(Br)c3)o2)c([N+](=O)[O-])c1` [Compound 1]?
Ki (hCA I; [1]): 700 nM; Ki (hCA VA; [2]): 826 nM; Ki (hCA II; [3]): 655 nM; Ki against hCA II, fold higher than that of AAZ (hCA II; relative to AAZ): around 54 fold; Ki against hCA II, fold higher than that of GV2-20 (hCA II; relative to GV2-20): around 10 fold; Ki (hCA VII; [4]): 325 nM; drop of inhibitory potency against hCA VII compared to GV2-20 (hCA VII; relative to GV2-20): around 37 fold; Selectivity Index hCA II/hCA XII (hCA XII): 23.99; Ki (hCA XII; [5]): 27.3 nM; Selectivity Index hCA II/hCA IX (hCA IX): 11.88; Ki (hCA IX): 55.1 nM; Ki (hCA IV; [6]): 5090 nM

With `CC1OC(Nc2cc(C(=O)O)cc([N+](=O)[O-])c2)C(O)C(O)C1O` (stereo not drawn) [Compound 2] as the compound, how does the Ki (hCA I) read?
Its Ki is 5640 nM.

And the Ki (hCA VA)?
Its Ki is 1350 nM.

What about the Ki (hCA II; [3]) of the same compound?
Its Ki is 7240 nM.

And the Ki (hCA VII; [4])?
The Ki was > 50000 nM.

What about the Ki (hCA XII; [5]) of the same compound?
Its Ki is > 50000 nM.

What about the “Selectivity Index hCA II/hCA IX” value (hCA IX) of the same compound?
Its value is 68.3.

What about the Ki (hCA IX) of the same compound?
Its Ki is 106 nM.

What about the Ki (hCA IV; [6]) of the same compound?
The Ki was > 50000 nM.

With `O=C(O)c1ccc(N2CCc3ccccc32)c([N+](=O)[O-])c1` [Compound 3] as the compound, how does the Ki (hCA I; [1]) read?
Its Ki is > 50000 nM.

What about the Ki (hCA VA; [2]) of the same compound?
The Ki was 1310 nM.

And the Ki (hCA II; [3])?
Its Ki is 7300 nM.

What about the Ki (hCA VII; [4]) of the same compound?
Its Ki is 840 nM.

And the Ki (hCA XII; [5])?
Its Ki is > 50000 nM.

What about the “Selectivity Index hCA II/hCA IX” value (hCA IX) of the same compound?
Its value is 34.9.

And the Ki (hCA IX)?
Its Ki is 209 nM.

And the Ki (hCA IV; [6])?
Its Ki is > 50000 nM.

For `O=C(O)c1ccc(Sc2ccccc2C(=O)O)c([N+](=O)[O-])c1` [Compound 4], which Ki (hCA I) is on record?
Its Ki is 6020 nM.

And the Ki (hCA VA)?
Its Ki is > 50000 nM.

What about the Ki (hCA II; [3]) of the same compound?
Its Ki is 2630 nM.

And the Ki (hCA VII; [4])?
Its Ki is > 50000 nM.

What about the Ki (hCA XII; [5]) of the same compound?
Its Ki is > 50000 nM.

What about the “Selectivity Index hCA II/hCA IX” value (hCA IX) of the same compound?
Its value is 15.3.

What about the Ki (hCA IX) of the same compound?
Its Ki is 172 nM.

What about the Ki (hCA IV; [6]) of the same compound?
The Ki was > 50000 nM.

With `O=C(O)c1ccc(NCCc2ccc(Cl)cc2)c([N+](=O)[O-])c1` [Compound 5] as the compound, how does the Ki (hCA I) read?
The Ki was 8150 nM.

What about the Ki (hCA VA; [2]) of the same compound?
Its Ki is 1160 nM.

And the Ki (hCA II; [3])?
The Ki was > 50000 nM.

And the “hCA VII inhibition (in words)” value (hCA VII)?
Its value is “inactive”.

And the Ki (hCA VII; [4])?
Its Ki is > 50000 nM.

And the “Selectivity Index hCA II/hCA XII” value (hCA XII)?
The value was >57.9.

What about the Ki (hCA XII; [5]) of the same compound?
Its Ki is 863 nM.

And the “Selectivity Index hCA II/hCA IX” value (hCA IX)?
Its value is >326.8.

And the Ki (hCA IX)?
Its Ki is 153 nM.

And the Ki (hCA IV; [6])?
Its Ki is > 50000 nM.

For `CCOC(=O)C1CCN(c2ccc(C(=O)O)cc2[N+](=O)[O-])CC1` [Compound 6], which Ki (hCA I) is on record?
The Ki was 8210 nM.

What about the Ki (hCA VA) of the same compound?
Its Ki is > 50000 nM.

What about the Ki (hCA II; [3]) of the same compound?
Its Ki is 8050 nM.

And the Ki (hCA VII; [4])?
Its Ki is > 50000 nM.

What about the “hCA XII inhibition (in words)” value (hCA XII) of the same compound?
Its value is “not active”.

What about the Ki (hCA XII; [5]) of the same compound?
The Ki was > 50000 nM.

What about the “Selectivity Index hCA II/hCA IX” value (hCA IX) of the same compound?
The value was 263.1.

What about the Ki (hCA IX) of the same compound?
Its Ki is 30.6 nM.

What about the Ki (hCA IV; [6]) of the same compound?
Its Ki is > 50000 nM.

`CS(=O)(=O)c1ccc(C(=O)O)cc1[N+](=O)[O-]` [Compound 7] was tested. Which Ki (hCA I) did it give?
Its Ki is > 50000 nM.

What about the Ki (hCA VA) of the same compound?
The Ki was 1460 nM.

What about the Ki (hCA II; [3]) of the same compound?
Its Ki is 7310 nM.

And the Ki (hCA VII; [4])?
The Ki was > 50000 nM.

And the “hCA XII inhibition (in words)” value (hCA XII)?
Its value is “not active”.

And the Ki (hCA XII; [5])?
Its Ki is > 50000 nM.

What about the “Selectivity Index hCA II/hCA IX” value (hCA IX) of the same compound?
Its value is 264.9.

What about the Ki (hCA IX) of the same compound?
Its Ki is 27.6 nM.

What about the Ki (hCA IV; [6]) of the same compound?
The Ki was > 50000 nM.

With `O=C(O)c1ccc(Sc2nnc(Sc3ccc(C(=O)O)cc3[N+](=O)[O-])s2)c([N+](=O)[O-])c1` [Compound 8] as the compound, how does the Ki (hCA I) read?
The Ki was 6450 nM.

What about the Ki (hCA VA) of the same compound?
The Ki was > 50000 nM.

And the Ki (hCA II)?
Its Ki is 801 nM.

And the Ki (hCA VII)?
The Ki was > 50000 nM.

What about the “hCA VII inhibition (in words)” value (hCA VII) of the same compound?
Its value is “inactive”.

What about the Ki (hCA XII) of the same compound?
Its Ki is 912 nM.

And the Ki (hCA IX)?
The Ki was 26.3 nM.

What about the Ki (hCA IV) of the same compound?
The Ki was 8800 nM.

`Cc1cc(C(=O)Nc2cc(C(=O)O)cc([N+](=O)[O-])c2)no1` [Compound 9] was tested. Which Ki (hCA I) did it give?
The Ki was > 50000 nM.

And the Ki (hCA VA)?
Its Ki is > 50000 nM.

What about the Ki (hCA II; [3]) of the same compound?
The Ki was 8500 nM.

And the Ki (hCA VII; [4])?
The Ki was 762 nM.

What about the “Selectivity Index hCA II/hCA XII” value (hCA XII) of the same compound?
Its value is 11.3.

What about the Ki (hCA XII; [5]) of the same compound?
The Ki was 753 nM.

What about the “Selectivity Index hCA II/hCA IX” value (hCA IX) of the same compound?
Its value is 51.5.

And the Ki (hCA IX)?
The Ki was 165 nM.

What about the Ki (hCA IV; [6]) of the same compound?
Its Ki is 8270 nM.

`O=C(O)c1ccc(Sc2ccccn2)c([N+](=O)[O-])c1` [Compound 10] was tested. Which Ki (hCA I; [1]) did it give?
The Ki was 6650 nM.

What about the Ki (hCA VA; [2]) of the same compound?
Its Ki is 142 nM.

And the Ki (hCA II; [3])?
Its Ki is > 50000 nM.

And the Ki (hCA VII; [4])?
Its Ki is 665 nM.

And the “Selectivity Index hCA II/hCA XII” value (hCA XII)?
The value was >609.01.

What about the Ki (hCA XII; [5]) of the same compound?
Its Ki is 82.1 nM.

What about the “Selectivity Index hCA II/hCA IX” value (hCA IX) of the same compound?
Its value is >3125.

What about the Ki (hCA IX) of the same compound?
Its Ki is 16 nM.

What about the Ki (hCA IV; [6]) of the same compound?
The Ki was > 50000 nM.

From paper PMC5943959, “Potent and Selective Carboxylic Acid Inhibitors of Tumor-Associated Carbonic Anhydrases IX and XII” (Molecules : A Journal of Synthetic Chemistry and Natural …, 2017)
